# In US20070293486A1, “Alpha-Keto Carbonyl Calpain Inhibitors” (SANTHERA PHARMACEUTICALS (SCHWEIZ) AG, priority 2004, published 2007):
# Experiments:
# [1] = test system: cellular calpains in C2C12 myoblasts; assay: Calpain Inhibition Assay in C2C12 Myoblasts; assay type: cell-based; details: read-out: Calp I IC50 Myoblast
# Experimental: This assay is aimed at monitoring the ability of the substance to inhibit cellular calpains. C2C12 myoblasts are grown in 96-well plates in growth medium (DMEM, 20% foetal calf serum) until they reach confluency. The growth medium is then replaced by fusion medium (DMEM, 5% horse serum). 24 hours later the fusion medium is replaced by fusion medium containing the test substances dissolved in 1 μl DMSO. After 2 hours of incubation at 37° C. the cells are loaded with the calpain fluorogenic substrate Suc-Leu-Tyr-AMC at 400 μM in 50 μl of a reaction buffer containing 135 mM NaCl; 5 mM KCl; 4 mM CaCl2; 1 mM MgCl2; 10 mM Glucose; 10 mM HEPES pH 7.25 for 20 min at room temperature. The calcium influx, necessary to activate the cellular calpains, is evoked by the addition of 50 μl reaction buffer containing 20 μM of the calcium ionophore Br-A-23187 (Molecular Probes). The fluorescence of the cleavage product AMC is measured as described above during 60 min at 37° C. at intervals of 1 min. The IC50 values are determined as described above. Comparison of the IC50 determined in the enzymatic calpain inhibition assay to the IC50 determined in the C2C12 myoblasts calpain inhibition assay, allows to evaluate the cellular uptake or the membrane permeability of the substance.
# mdx mouse = assay: Longterm treatment of mdx mice (muscle histology); assay type: in vivo; details: for adverse effects upon longterm treatment: longterm treatment every 2nd day i.p.
# Experimental: The mdx mouse is a well established animal model for Duchenne Muscular Dystrophy (Bulfield G., Siller W. G., Wight P. A., Moore K. J., X chromosome-linked muscular dystrophy (mdx) in the mouse, Proc. Natl. Acad. Sci. USA., 1984, 81(4), 1189-1192). Selected compounds were tested in longterm treatments of mdx mice, according to the procedures described below.
# Mouse strains: C57BL/10scsn and C57BL/10scsn mdx mouse strains were purchased at The Jackson Laboratory (ME, USA) and bred inhouse. Mouse males were sacrificed at the age of 3 or 7 weeks by CO2 asphyxiation.
# Treatment: Compounds were dissolved in 50% PEG, 50% saline solution and applied by i.p. injection.
# Histology: Tibialis anterior (TA), quadriceps (Quad), and diaphragm (Dia) muscles were collected and mounted on cork supports using gum tragacanth (Sigma-Aldrich, Germany). The samples were snap-frozen in melting isopentane and stored at −80° C. 12 μm thick cryosections of the mid-belly region of muscles were prepared. For staining, sections were air dried and fixed with 4% PFA in PBS for 5 minutes, washed 3 times with PBS and incubated over night at 4° C. in PBS containing 2 μg/ml Alexa Fluor ™ 488 conjugated wheat-germ agglutinin (WGA-Alexa, Molecular Probes, Eugene, Oreg., USA) to stain membrane-bound and extracellular epitopes and 1 μg/ml 4′,6-diamidino-2-phenylindole (DAPI; Molecular Probes) to stain nuclei.
# Image acquisition and analysis: Fluorescence microscopy images of both labels were acquired using a digital camera (ColorView II, Soft Imaging System, Münster, Germany) coupled to a fluorescence microscope (Vanox S, Olympus, Tokyo, Japan). Combination of these two stainings to a composite image, assembling of several images to a complete image of the entire muscle cross-section and further semi-automated analysis was performed using the image analysis program AnalySIS (Soft Imaging System). Image analysis of 1200-2900 muscle fibers in each section was performed in three steps: 1) determination of the muscle fiber boundaries, 2) determination of the muscle fiber size, and 3) determination of the percentage of muscle fibers containing centralized nuclei. Six different geometrical parameters were tested for the determination of the muscle fiber size: (a) the “minimal feret” (the minimum distance of parallel tangents at opposing borders of the muscle fiber), (b) the “area”, (c) the “minimal inner diameter” (the minimum diameter through the center of the muscle fiber), (d) the “minimal diameter” (the minimum diameter of a muscle fiber for angles in the range 0° through 179° with step width 1°, (e) the “minimal outer diameter” (the minimum diameter through the muscle fiber from outer border to outer border), and (f) the “perimeter”. The variance coefficient of the muscle fiber size is defined as follows: variance coefficient=(standard deviation of the muscle fiber size/mean of the muscle fiber size of the section)*[…]. For statistical analysis of different variance coefficient values Mann-Whitney U test was used.
# [2] = test system: Primary fibroblasts from donors with Friedreich Ataxia (FRDA); assay: BSO Assay (cell viability under BSO-induced oxidative stress); assay type: cell-based; details: Homo sapiens, Fibroblast
# Experimental: Primary fibroblasts were derived from donors with molecular diagnosis for Friedreich Ataxia (FRDA) and control donors with no mitochondrial disease. Cell lines were obtained from Coriell Cell Repositories (Camden, N.J.; catalog numbers GM04078, GM08402 and GM08399 respectively). All cell types were diagnosed on the molecular level for intronic […] triplet repeat length of at least 400-450 repeats using a PCR-based method. […] Cell viability was measured after the first signs of toxicity appeared in the BSO-treated controls (typically after 16 to 48 h). […] Fluorescence intensity was measured with a Gemini Spectramax XS spectrofluorimeter (Molecular Devices, Sunnyvale, Calif.) using excitation and emission wavelengths of 485 nm and 525 nm respectively.
# [3] = 20 mg/kg every 2nd day i.p., 3 week old mice, 4 weeks treatment, diaphragm, vs vehicle mdx controls
SMILES,IC50 [1],decrease in the variance coefficient of the muscle fiber size in the Dia (mdx mouse; [3]),adverse effects upon longterm treatment (mdx mouse),EC50 [2],"decrease in the variance coefficient of the muscle fiber size in the Dia (mdx mouse; 2 mg/kg every 2nd day i.p., diaphragm, vs vehicle mdx controls)","reduction of the percentage of centralized nuclei in the Dia (mdx mouse; 20 mg/kg every 2nd day i.p., diaphragm, vs vehicle mdx controls)","decrease in the variance coefficient of the muscle fiber size in the Quad (mdx mouse; 20 mg/kg every 2nd day i.p., quadriceps, vs vehicle mdx controls)",melting point
CCNC(=O)C(=O)[C@H](Cc1ccc(Cl)cc1)NC(=O)[C@@H](NC(=O)[C@H](Cc1ccccc1)NC(=O)CCCCC1CCS[S+]1[O-])C(C)C (some centres unmarked) [Example 2],210 nM,26%,No prominent adverse effects,800 nM,,,,
CCNC(=O)C(=O)C(Cc1ccc(OC)cc1)NC(=O)C(CC(C)C)NC(=O)C(Cc1cccc2ccccc12)NC(=O)CCCCC1CCSS1 (centres unmarked) [Example 637],40 nM,34%,No prominent adverse effects,,33%,34%,32%,188 to 190 °C
